Reference: patent US4370335A, “Antisecretory 4-diphenylmethyl-1-[(oxoalkyl)imino]methyl-piperidines and their derivatives” (McNeilab, Inc., priority 1982, dated 1983)
Where a name gives a salt, the structure may show the parent alone.

Test system: gastric acid secretion
Experiment: Acute Gastric Fistula, Rat: inhibition of gastric acid secretion (Total Acid Output)
Type: in vivo, Female Sprague-Dawley rats
Conditions: po, 1 h, one hour prior to surgery, dose for average 50% inhibition in Total Acid Output versus controls, collection at one hour
Method: The compounds of the invention are useful for inhibition of gastric acid secretion as measured by the following test. Female Sprague-Dawley rats are fasted twenty-four hours before testing and are given water ad libidum while being kept in individual cages. On the day of testing, the rats are weighed and are selected so that the rats in each test weigh within a range ±20 grams.
Surgery is carried out under light ether anesthesia. As soon as the rat is anesthetized its teeth are removed and a mid-line incision is made on the abdomen about 11/2 inches in length and the stomach and duodenum are exposed. If at this point the stomach is filled with food or fecal material, the rat is discarded. If the condition of the stomach is acceptable, a purse string stitch is placed on the fundic portion of the stomach with a suture, taking care not to pierce any blood vessels in the area. A small nick is then made into the stomach in the center of the purse string, and a cannula, consisting of a small vinyl tube with a flange on one end, is put into the stomach, and the purse string stitch is closed tightly around the flange. The test compound is administered either intraduodenally (i.d.) immediately after surgery or orally (p.o.) one hour prior to surgery at doses generally ranging from about 0.25 to about 160 mg/kg in a volume of 0.5 ml/100 grams rat. Control rats receive the test vehicle, 0.5% aqueous methyl cellulose.
After the surgery and (in the case of i.d. administration) after administration of the test compound, the abdominal wall and skin are closed simultaneously with three or four 18 mm wound clips and a collecting tube is placed on the cannula. Each rat is then placed in a box in which a longitudinal slit has been made to allow the cannula to hang freely and to allow the rat to move about unencumbered. After the rat has been allowed to stabilize for thirty minutes, the collection tube on the cannula is discarded and replaced with a clean tube to receive the gastric juice. Collections are made at one hour. At the end of the study, the cannula is removed and the rat is sacrificed.
The sample of gastric contents collected is drained into a centrifuge tube and centrifuged to pack down the sediment. The volume is read and a 1 ml aliquot of the supernatant is put into a beaker containing 10 ml distilled water and is titrated to pH 7 using 0.01 N sodium hydroxide. Results are determined for Volume, Titratable Acid and Total Acid Output, where Volume equals total ml of gastric juice minus sediment; Titratable Acid (meq/l) equals amount of 0.01 N sodium hydroxide needed to titrate the acid to pH 7; and Total Acid Output equals Titratable Acid times Volume. Results are reported as the ED50 dose (mg/kg required to produce an average of 50% inhibition in Total Acid Output versus controls in all the animals tested for a particular compound) and as percent inhibition.
The results obtained for representative compounds of the invention by the above test for inhibition of gastric secretion are shown in Table I: […]

| Compound | ED50 |
| --- | --- |
| CC(=O)CCCCCCN=CN1CCC(C(c2ccccc2)c2ccccc2)CC1 [Example 2, 4-(Diphenylmethyl)-1-{[(7-oxooctyl)imino]methyl}piperidine (E)-2-Butenedioate (1:1) Hydrate (10:7)] | 14.7 mg/kg |
| CC(=O)CCCCCCCCN=CN1CCC(C(c2ccccc2)c2ccccc2)CC1 [Example 5] | 4.76 mg/kg |
| CC1(CCCCCCN=CN2CCC(C(c3ccccc3)c3ccccc3)CC2)OCCO1 [Example 1, 4-(Diphenylmethyl)-1-{{[6-(2-methyl-1,3-dioxolan-2-yl)hexyl]imino}methyl}piperidine (E)-2-Butenedioate (1:1) Hydrate (10:7)] | 3.14 mg/kg |
| CC(CCCCCCN=CN1CCC(C(c2ccccc2)c2ccccc2)CC1)=NO [Example 4, 4-(Diphenylmethyl)-1-{{[7-(hydroxyimino)octyl]imino}methyl}piperidine 2-Naphthalenesulfonate (1:1) Hydrate (5:1)] | 12.3 mg/kg |
| CC(O)CCCCCCN=CN1CCC(C(c2ccccc2)c2ccccc2)CC1 (stereo not drawn) [Example 3, 4-(Diphenylmethyl)-1-{[(7-hydroxyoctyl)imino]methyl}piperidine 2-Naphthalenesulfonate (1:1) Hydrate (4:1)] | 78.1 mg/kg |
| CC(=O)CN=CN1CCC(C(c2ccccc2)c2ccccc2)CC1 [Example 6, 4-Diphenylmethyl-1-[(2-oxopropyl)imino]methyl piperidine Hydrochloride (1:1) Hydrate (10:1)] | 6.07 mg/kg |
